What is called inhibition is the change of the read-out against control, counted positive when it falls. In general, IC50 refers to the concentration needed to halve the response being measured. Lower therefore signals greater potency.

The structures appear in SMILES notation.

Consider 31 compounds from ChEMBL document CHEMBL5576068, “Design, synthesis, and biological antitumor evaluation of tetrahydroisoquinoline derivatives” (Bioorg Med Chem Lett, 2024).

For assay [1], the system named is HCT-116. The experiment in a line: Cytotoxicity against human HCT-116 cells assessed as cell inhibition rate at 40 uM by CCK8 assay relative to control. It counts as functional. In general terms: Tetrazolium dyes change colour on reduction, which living cells bring about.
Assay [2] concerns MDA-MB-231. The experiment in a line: Cytotoxicity against human MDA-MB-231 cells assessed as cell inhibition rate at 40 uM by CCK8 assay relative to control. It counts as functional.
In assay [3] the test system is HepG2. Description: Cytotoxicity against human HepG2 cells assessed as cell inhibition rate at 40 uM by CCK8 assay relative to control. It counts as functional.
For assay [4], the system named is A-375. Description: Cytotoxicity against human A-375 cells assessed as cell inhibition rate at 40 uM by CCK8 assay relative to control. It counts as functional.
Assay [5] relates to HCT-116. The experiment in a line: Cytotoxicity against human HCT-116 cells measured for 48 hrs. The conditions noted are these: HCT-116, 48 h. It counts as functional, cell-based.
The test system of assay [6] is MDA-MB-231. Description: Cytotoxicity against human MDA-MB-231 cells measured for 48 hrs. It counts as functional, cell-based. The conditions noted are these: MDA-MB-231, 48 h.
Assay [7] concerns HepG2. Description: Cytotoxicity against human HepG2 cells measured for 48 hrs. It counts as functional, cell-based. Particulars: HepG2, 48 h.
For assay [8], the system named is A-375. The experiment in a line: Cytotoxicity against human A-375 cells measured for 48 hrs. It counts as functional, cell-based. Particulars: A-375, 48 h.

As to `COc1cc2c(cc1OC)CN(C)CC2`, the inhibition at 40 µM was 25.2% in the assay with HCT-116 [1], 30.7% in the assay on MDA-MB-231 [2], 20.6% in the assay on HepG2 [3] and 27.4% in the assay with A-375 [4].
Regarding `CN1CCc2cc3c(cc2C1)OCO3`, the inhibition at 40 µM with HCT-116 [1] is 18.2%; with MDA-MB-231 [2], 14.5%; with HepG2 [3] it was 26.8%; with A-375 [4] it was 22.5%.
For the compound `COc1cc2c(cc1OCc1ccccc1)CN(C)CC2`, the inhibition at 40 µM in the assay on HCT-116 [1] came to 32.9%; in the assay on MDA-MB-231 [2], 30.2%; in the assay on HepG2 [3], 16.3%; with A-375 [4] it was 14.7%.
Regarding `COc1cc2c(cc1OCc1ccccc1)C[N+](C)(Cc1ccc(Oc3ccc(-c4ccc(C#N)cc4)cc3)nc1)CC2` (centres undefined), the IC50 in the assay with HCT-116 [5] was 7.5 µM; with MDA-MB-231 [6], > 20 µM; with HepG2 [7] it was 3.8 µM; in the assay with A-375 [8], 9.7 µM.
Take `COc1cc2c(cc1OCc1ccccc1)C[N+](C)(Cc1ccc([N+](=O)[O-])nc1)CC2` (centres undefined): the inhibition at 40 µM in the assay with HCT-116 [1] stood at 26.6%; with MDA-MB-231 [2], 10.1%; in the assay on HepG2 [3], 22.6%; with A-375 [4], 16.1%.
`C[N+]1(Cc2ccc(Br)nc2)CCc2cc3c(cc2C1)OCO3` (centres undefined): the inhibition at 40 µM with HCT-116 [1] stood at 29.2%; in the assay on MDA-MB-231 [2], 23.2%; in the assay on HepG2 [3], 19.8%; with A-375 [4] it was 9.69%.
As to `COc1cc2c(cc1OCc1ccccc1)C[N+](C)(Cc1ccc(Oc3ccc(Oc4ccccc4)cc3)nc1)CC2` (centres undefined), the IC50 in the assay with HCT-116 [5] turned out to be 11.6 µM; in the assay on MDA-MB-231 [6], 12.6 µM; in the assay on HepG2 [7], 12.6 µM; with A-375 [8], 7.6 µM.
Regarding `COc1cc2c(cc1OCc1ccccc1)C[N+](C)(Cc1ccc(Oc3ccc(Oc4ccc(C(F)(F)F)cc4)cc3)nc1)CC2` (centres undefined), the IC50 in the assay on HCT-116 [5] is 4.1 µM; in the assay on MDA-MB-231 [6], 9.8 µM; in the assay with HepG2 [7], 4.1 µM; in the assay with A-375 [8], 6.1 µM.
Take `CCCCC[C@H]1CC[C@H](c2ccc(Oc3ccc(C[N+]4(C)CCc5cc(OC)c(OCc6ccccc6)cc5C4)cn3)cc2)CC1` (some centres undefined): the IC50 stood at 9 µM with HCT-116 [5], 11.4 µM in the assay with MDA-MB-231 [6], 11.6 µM with HepG2 [7] and 8.7 µM in the assay with A-375 [8].
The like results for `COc1cc2c(cc1OCc1ccccc1)C[N+](C)(Cc1ccc(Oc3ccc(OC(C)C)cc3)nc1)CC2` (centres undefined) were, in that order, 19.3 µM, > 20 µM, 9.67 µM and 13.5 µM.
The like results for `COc1cc2c(cc1OCc1ccccc1)C[N+](C)(Cc1ccc(Nc3ccccc3[N+](=O)[O-])nc1)CC2` (centres undefined) were, in that order, 4.6 µM, 10 µM, 4.8 µM and 7.6 µM.
Turning to `COc1cc2c(cc1OCc1ccccc1)C[N+](C)(Cc1ccc(Oc3ccc(C4CC4)cc3)nc1)CC2` (centres undefined), the IC50 with HCT-116 [5] was > 20 µM; in the assay with MDA-MB-231 [6] it was 12.5 µM; with HepG2 [7] it was 19.2 µM; in the assay with A-375 [8] it was 15.7 µM.
The like results for `CCCCN(CCCC)c1ccc(Oc2ccc(C[N+]3(C)CCc4cc(OC)c(OCc5ccccc5)cc4C3)cn2)cc1` (centres undefined) were, in that order, 10.5 µM, > 20 µM, 10 µM and 10.3 µM.
As for `COc1cc2c(cc1OCc1ccccc1)C[N+](C)(Cc1ccc(Oc3cc(Cl)ccc3Oc3ccc(Cl)cc3Cl)nc1)CC2` (centres undefined), the IC50 stood at 4.5 µM in the assay with HCT-116 [5], 9.3 µM with MDA-MB-231 [6], 4.7 µM in the assay with HepG2 [7] and 5.4 µM with A-375 [8].
Take `COc1cc2c(cc1OCc1ccccc1)C[N+](C)(Cc1ccc(Oc3ccc(/N=N/c4ccccc4)cc3)nc1)CC2` (centres undefined): the IC50 was determined as 11.6 µM with HCT-116 [5], 13.3 µM in the assay with MDA-MB-231 [6], 13.1 µM in the assay with HepG2 [7] and 5.5 µM with A-375 [8].
As to `COc1cc2c(cc1OCc1ccccc1)C[N+](C)(Cc1cnc3ccccc3c1)CC2` (centres undefined), the inhibition at 40 µM in the assay on HCT-116 [1] came out at 8.29%; in the assay on MDA-MB-231 [2], 7.43%; with HepG2 [3], 6.8%; with A-375 [4], 13.9%.
As for `COc1cc2c(cc1OCc1ccccc1)C[N+](C)(Cc1ccc(Oc3ccc(SC(F)(F)F)cc3)nc1)CC2` (centres undefined), the IC50 in the assay with HCT-116 [5] turned out to be 13.4 µM; in the assay on MDA-MB-231 [6] it was 15.3 µM; in the assay with HepG2 [7], 14.6 µM; in the assay with A-375 [8], 11.6 µM.
As for `COc1cc2c(cc1OCc1ccccc1)C[N+](C)(Cc1ccc(Br)nc1)CC2` (centres undefined), the inhibition at 40 µM amounted to 20.7% in the assay on HCT-116 [1], 17.4% in the assay on MDA-MB-231 [2], 27.3% in the assay on HepG2 [3] and 22.2% in the assay with A-375 [4].
On to `COc1cc2c(cc1OCc1ccccc1)C[N+](C)(Cc1ccc(Oc3ccc(C45CC6CC(CC(C6)C4)C5)cc3)nc1)CC2` (centres undefined), for which the IC50 with HCT-116 [5] stood at 2.5 µM; in the assay with MDA-MB-231 [6] it was 4.6 µM; in the assay with HepG2 [7] it was 4.2 µM; in the assay with A-375 [8], 12.4 µM.
For `COc1cc2c(cc1OCc1ccccc1)C[N+](C)(Cc1ccccn1)CC2` (centres undefined), the inhibition at 40 µM with HCT-116 [1] was 11.6%; in the assay with MDA-MB-231 [2] it was 9.61%; in the assay on HepG2 [3], 18.9%; in the assay on A-375 [4], 13.7%.
For `COc1cc2c(c(OC)c1OC)CC[N+](C)(Cc1ccc(Br)nc1)C2` (centres undefined), in that order: 53.4%, 35.1%, 60.6% and 24.8%.
For `COc1cc2c(cc1OCc1ccccc1)C[N+](C)(Cc1ccc(Br)cn1)CC2` (centres undefined), in that order: 16%, 23.7%, 27.8% and 31.2%.
`COc1cc2c(cc1OCc1ccccc1)C[N+](C)(Cc1ccc(Oc3ccc(C4CCC(=O)CC4)cc3)nc1)CC2` (centres undefined): the IC50 is 18.7 µM in the assay with HCT-116 [5], 12.4 µM in the assay on MDA-MB-231 [6], > 20 µM in the assay on HepG2 [7] and 17.9 µM with A-375 [8].
Regarding `COc1cc2c(cc1OCc1ccccc1)C[N+](C)(Cc1ccc3ccccc3n1)CC2` (centres undefined), the inhibition at 40 µM in the assay on HCT-116 [1] is 3.2%; with MDA-MB-231 [2], 2.75%; in the assay with HepG2 [3] it was 7.43%; in the assay on A-375 [4], 13%.
In the case of `COc1cc2c(cc1OCc1ccccc1)C[N+](C)(Cc1ccc(Oc3ccc(OCc4ccccc4)cc3)nc1)CC2` (centres undefined), the IC50 with HCT-116 [5] came out at 8.9 µM; in the assay on MDA-MB-231 [6], 12.4 µM; in the assay with HepG2 [7], 6.8 µM; in the assay on A-375 [8], 11.6 µM.
In the case of `COc1cc2c(cc1O)C[N+](C)(Cc1ccc(Br)nc1)CC2` (centres undefined), the inhibition at 40 µM came to 34.5% with HCT-116 [1], 34.4% with MDA-MB-231 [2], 15% in the assay on HepG2 [3] and 12.3% in the assay on A-375 [4].
On to `COc1cc2c(cc1OCc1ccccc1)C[N+](C)(Cc1ccc(Oc3cc(C(F)(F)F)ccc3F)nc1)CC2` (centres undefined), for which the IC50 in the assay with HCT-116 [5] amounted to 18.6 µM; with MDA-MB-231 [6], 17.3 µM; in the assay on HepG2 [7], 12.4 µM; in the assay with A-375 [8], 12.5 µM.
Take `COc1cc2c(c(OC)c1OC)CCN(C)C2`: the inhibition at 40 µM worked out at 18.2% with HCT-116 [1], 52% with MDA-MB-231 [2], 9.18% in the assay with HepG2 [3] and 22.3% in the assay with A-375 [4].
As to `COc1cc2c(cc1OC)C[N+](C)(Cc1ccc(Br)nc1)CC2` (centres undefined), the inhibition at 40 µM with HCT-116 [1] came out at 18.4%; in the assay with MDA-MB-231 [2] it was 30.5%; in the assay on HepG2 [3] it was 19.8%; in the assay with A-375 [4], 41.1%.
With `COc1cc2c(cc1OCc1ccccc1)C[N+](C)(Cc1ccnc3ccccc13)CC2` (centres undefined), the inhibition at 40 µM was 12.1% in the assay with HCT-116 [1], 8.29% in the assay on MDA-MB-231 [2], 11.7% in the assay with HepG2 [3] and 9.33% in the assay on A-375 [4].
As for `COc1ccc2c(c1OC)C(=O)O[C@@H]2[C@H]1c2c(cc3c(c2OC)OCO3)CCN1C` [NOSCAPINE], the IC50 in the assay on HCT-116 [5] stood at 154 µM; in the assay with MDA-MB-231 [6] it was 120 µM; with HepG2 [7] it was 120 µM; with A-375 [8], 180 µM.
